# Measured values reported in ChEMBL document CHEMBL1201862, “PubChem BioAssay data set” (2004).
# Values joined by “and” are separate entries in the source; they are usually repeats but may differ in a detail not shown here. Equal entries are not always repeated.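 Growth conditions: 96-well plates. Treatment: test compound, 48 hours, 5 concentrations. Analysis: linear interpolation between bracketing concentrations; unreached endpoints set to highest concentration. GI50 is the concentration that inhibits growth by half.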 Active and inactive are the calls of the source. No stated cut-off is given here; in the data, active = GI50 up to about 1.1 µM and inactive = higher.
# Tests used:
# Assay in all cases: inhibition of tumour cell growth, NCI panel, 48 h
# [1] = test system: OVCAR-4
# [2] = test system: SW-620
# [3] = test system: HOP-92
# [4] = test system: A549
# [5] = test system: DU-145
# [6] = test system: SR
# [7] = test system: 786-0
# [8] = test system: SK-MEL-28
# [9] = test system: SK-OV-3
# [10] = test system: HL-60
# [11] = test system: KM12
# [12] = test system: LOX IMVI
# [13] = test system: CCRF-CEM
# [14] = test system: MDA-MB-435
# [15] = test system: OVCAR-8
# [16] = test system: SK-MEL-5
# [17] = test system: UACC-257
# [18] = test system: HT-29
# [19] = test system: UACC-62
# [20] = test system: MDA-N
# [21] = test system: MOLT-4
# [22] = test system: RXF 393
# [23] = test system: COLO 205
# [24] = test system: M14
# [25] = test system: TK-10
# [26] = test system: K562
# [27] = test system: SNB-75
# [28] = test system: CAKI-1
# [29] = test system: IGROV-1
# [30] = test system: T47D
# [31] = test system: MDA-MB-231
# [32] = test system: HCT-15
# [33] = test system: SF-268
# [34] = test system: Malme-3M
# [35] = test system: PC-3
# [36] = test system: SF-295
# [37] = test system: SN12C
# [38] = test system: NCI-H23
# [39] = test system: EKVX
# [40] = test system: RPMI-8226
# [41] = test system: HCC 2998
# [42] = test system: MCF7
# [43] = test system: OVCAR-3
# [44] = test system: NCI-H226
# [45] = test system: NCI-H522
# [46] = test system: U-251
# [47] = test system: Hs-578T
# [48] = test system: OVCAR-5
# [49] = test system: HOP-62
# [50] = test system: SK-MEL-2
# [51] = test system: HCT-116
# [52] = test system: A498
# [53] = test system: SF-539
# [54] = test system: ACHN
# [55] = test system: UO-31
# [56] = test system: NCI/ADR-RES
# [57] = test system: NCI-H460
# [58] = test system: SNB-19
structure (smiles),measurement,setting,value
CCSc1[nH]c(/N=C(/NC(=O)c2ccccc2)NC(C)C)c(C(N)=O)c1C(N)=O,GI50,[1],> 10 µM (inactive)
same,GI50,[2],> 10 µM (inactive)
same,GI50,[3],> 10 µM (inactive)
same,GI50,[4],> 10 µM (inactive)
same,GI50,[5],> 10 µM (inactive)
same,GI50,[6],> 10 µM (inactive)
same,GI50,[7],> 10 µM (inactive)
same,GI50,[8],> 10 µM (inactive)
same,GI50,[9],> 10 µM (inactive)
same,GI50,[10],> 10 µM (inactive)
same,GI50,[11],> 10 µM (inactive)
same,GI50,[12],> 10 µM (inactive)
same,GI50,[13],> 10 µM (inactive)
same,GI50,[14],> 10 µM (inactive)
same,GI50,[15],> 10 µM (inactive)
same,GI50,[16],> 10 µM (inactive)
same,GI50,[17],> 10 µM (inactive)
same,GI50,[18],> 10 µM (inactive)
same,GI50,[19],> 10 µM (inactive)
same,GI50,[20],> 10 µM (inactive)
same,GI50,[21],> 10 µM (inactive)
same,GI50,[22],> 10 µM (inactive)
same,GI50,[23],> 10 µM (inactive)
same,GI50,[24],> 10 µM (inactive)
same,GI50,[25],> 10 µM (inactive)
same,GI50,[26],> 10 µM (inactive)
same,GI50,[27],> 10 µM (inactive)
same,GI50,[28],> 10 µM (inactive)
same,GI50,[29],> 10 µM (inactive)
same,GI50,[30],> 10 µM (inactive)
same,GI50,[31],> 10 µM (inactive)
same,GI50,[32],> 10 µM
same,GI50,[33],> 10 µM (inactive)
same,GI50,[34],> 10 µM (inactive)
same,GI50,[35],> 10 µM (inactive)
same,GI50,[36],> 10 µM (inactive)
same,GI50,[37],> 10 µM (inactive)
same,GI50,[38],> 10 µM (inactive)
same,GI50,[39],> 10 µM (inactive)
same,GI50,[40],> 10 µM (inactive)
same,GI50,[41],> 10 µM (inactive)
same,GI50,[42],> 10 µM (inactive)
CC(=O)OCC1OC(Sc2nc(-c3ccc(Cl)cc3)c(C#N)c(=O)n2C2OC(COC(C)=O)C(OC(C)=O)C(OC(C)=O)C2OC(C)=O)C(OC(C)=O)C(OC(C)=O)C1OC(C)=O (stereo not drawn),GI50,[1],3.45 µM (inactive)
same,GI50,[6],30.3 µM (inactive)
same,GI50,[10],3.82 µM (inactive)
same,GI50,[21],50.4 µM (inactive) and > 26.4 µM (inactive)
same,GI50,[40],35.9 µM (inactive)
O=C(c1cc2c(c3ccccc13)NCCN=C2C(F)(F)F)C(F)(F)F,GI50,[1],38.7 µM (inactive)
same,GI50,[2],35.2 µM (inactive)
same,GI50,[3],21.9 µM (inactive)
same,GI50,[5],41.4 µM (inactive)
same,GI50,[43],26 µM (inactive)
same,GI50,[6],3.94 µM (inactive)
same,GI50,[44],18.5 µM (inactive)
same,GI50,[7],20.8 µM (inactive)
same,GI50,[8],18.9 µM (inactive)
same,GI50,[9],37.4 µM (inactive)
same,GI50,[10],16.3 µM (inactive)
same,GI50,[11],19.4 µM (inactive)
same,GI50,[12],13.7 µM (inactive)
same,GI50,[13],17 µM (inactive)
same,GI50,[14],34.2 µM (inactive)
same,GI50,[15],34.5 µM (inactive)
same,GI50,[16],16.4 µM (inactive)
same,GI50,[17],19.3 µM (inactive)
same,GI50,[18],11.6 µM (inactive)
same,GI50,[20],21.4 µM (inactive)
same,GI50,[21],7.11 µM (inactive)
same,GI50,[45],20.6 µM (inactive)
same,GI50,[22],23.3 µM (inactive)
same,GI50,[24],24.9 µM (inactive)
same,GI50,[25],24.9 µM (inactive)
same,GI50,[46],13.5 µM (inactive)
same,GI50,[26],7.16 µM (inactive)
same,GI50,[47],14.3 µM (inactive)
same,GI50,[27],21.6 µM (inactive)
same,GI50,[28],32.4 µM (inactive)
same,GI50,[29],29.6 µM (inactive)
same,GI50,[30],21.4 µM (inactive)
same,GI50,[48],65.3 µM (inactive)
same,GI50,[31],20.2 µM (inactive)
same,GI50,[32],45.3 µM
same,GI50,[49],19.7 µM (inactive)
same,GI50,[33],24 µM (inactive)
same,GI50,[50],18.7 µM (inactive)
same,GI50,[51],26.7 µM (inactive)
same,GI50,[52],17.1 µM (inactive)
same,GI50,[35],14.6 µM (inactive)
same,GI50,[36],16 µM (inactive)
same,GI50,[53],20.1 µM (inactive)
same,GI50,[54],22.8 µM (inactive)
same,GI50,[38],40.6 µM (inactive)
same,GI50,[39],47.4 µM (inactive)
same,GI50,[40],6.95 µM (inactive)
same,GI50,[41],17.5 µM (inactive)
same,GI50,[55],51.9 µM (inactive)
same,GI50,[56],27 µM (inactive)
same,GI50,[42],19.2 µM (inactive)
same,GI50,[57],15.5 µM (inactive)
Cc1nnc2sc(-c3ccc(N)cc3)nn12,GI50,[1],> 100 µM (inactive)
same,GI50,[2],> 100 µM (inactive)
same,GI50,[3],> 100 µM (inactive)
same,GI50,[4],> 100 µM (inactive)
same,GI50,[5],> 100 µM (inactive)
same,GI50,[43],> 100 µM (inactive)
same,GI50,[6],> 100 µM (inactive)
same,GI50,[44],> 100 µM (inactive)
same,GI50,[7],> 100 µM (inactive)
same,GI50,[8],> 100 µM (inactive)
same,GI50,[9],> 100 µM (inactive)
same,GI50,[10],> 100 µM (inactive)
same,GI50,[11],> 100 µM (inactive)
same,GI50,[13],> 100 µM (inactive)
same,GI50,[14],> 100 µM (inactive)
same,GI50,[15],> 100 µM (inactive)
same,GI50,[16],> 100 µM (inactive)
same,GI50,[17],> 100 µM (inactive)
same,GI50,[18],> 100 µM (inactive)
same,GI50,[19],> 100 µM (inactive)
same,GI50,[21],> 100 µM (inactive)
same,GI50,[45],> 100 µM (inactive)
same,GI50,[22],> 100 µM (inactive)
same,GI50,[23],> 100 µM (inactive)
same,GI50,[24],> 100 µM (inactive)
same,GI50,[25],> 100 µM (inactive)
same,GI50,[26],> 100 µM (inactive)
same,GI50,[47],89.3 µM (inactive)
same,GI50,[27],21.3 µM (inactive)
same,GI50,[28],> 100 µM (inactive)
same,GI50,[29],> 100 µM (inactive)
same,GI50,[30],> 100 µM (inactive)
same,GI50,[48],> 100 µM (inactive)
same,GI50,[31],> 100 µM (inactive)
same,GI50,[32],> 100 µM
same,GI50,[49],> 100 µM (inactive)
same,GI50,[33],> 100 µM (inactive)
same,GI50,[50],> 100 µM (inactive)
same,GI50,[51],> 100 µM (inactive)
same,GI50,[34],> 100 µM (inactive)
same,GI50,[35],> 100 µM (inactive)
same,GI50,[36],> 100 µM (inactive)
same,GI50,[37],> 100 µM (inactive)
same,GI50,[53],> 100 µM (inactive)
same,GI50,[54],> 100 µM (inactive)
same,GI50,[38],> 100 µM (inactive)
same,GI50,[58],> 100 µM (inactive)
same,GI50,[39],> 100 µM (inactive)
same,GI50,[40],> 100 µM (inactive)
same,GI50,[41],> 100 µM (inactive)
same,GI50,[55],> 100 µM (inactive)
same,GI50,[56],> 100 µM (inactive)
same,GI50,[42],> 100 µM (inactive)
same,GI50,[57],> 100 µM (inactive)
